Seven compounds from BindingDB's records for patent US20250382289 (Xizang Haisco Pharmaceutical, 2025) can be followed below.

A value given as a limit tells only on which side of the number the result lay.

Chain of Ubiquitin carboxyl-terminal hydrolase 1/WD repeat-containing protein 48 (O94782 whole entry): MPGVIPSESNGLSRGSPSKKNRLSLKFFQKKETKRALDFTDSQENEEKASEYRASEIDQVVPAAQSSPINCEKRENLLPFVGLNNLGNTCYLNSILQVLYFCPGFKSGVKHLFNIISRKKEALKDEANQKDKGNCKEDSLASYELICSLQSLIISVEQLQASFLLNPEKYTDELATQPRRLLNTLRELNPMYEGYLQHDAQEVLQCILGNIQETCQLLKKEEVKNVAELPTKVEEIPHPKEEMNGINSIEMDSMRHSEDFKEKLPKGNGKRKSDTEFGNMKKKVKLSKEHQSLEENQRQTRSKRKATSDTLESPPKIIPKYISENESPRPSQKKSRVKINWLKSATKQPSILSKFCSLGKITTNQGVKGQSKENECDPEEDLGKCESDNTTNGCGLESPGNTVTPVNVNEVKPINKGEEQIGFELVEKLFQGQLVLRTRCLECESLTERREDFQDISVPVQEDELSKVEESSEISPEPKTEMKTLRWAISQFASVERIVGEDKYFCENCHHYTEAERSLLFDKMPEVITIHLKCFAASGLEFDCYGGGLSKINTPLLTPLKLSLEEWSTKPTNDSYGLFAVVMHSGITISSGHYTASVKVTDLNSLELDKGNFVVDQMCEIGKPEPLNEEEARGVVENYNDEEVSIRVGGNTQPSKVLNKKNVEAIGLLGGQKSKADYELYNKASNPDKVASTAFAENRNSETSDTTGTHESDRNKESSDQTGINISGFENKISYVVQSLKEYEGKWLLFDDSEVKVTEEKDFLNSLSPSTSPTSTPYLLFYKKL
Chain of Ubiquitin carboxyl-terminal hydrolase 1/WD repeat-containing protein 48 (Q8TAF3 whole entry, further chain): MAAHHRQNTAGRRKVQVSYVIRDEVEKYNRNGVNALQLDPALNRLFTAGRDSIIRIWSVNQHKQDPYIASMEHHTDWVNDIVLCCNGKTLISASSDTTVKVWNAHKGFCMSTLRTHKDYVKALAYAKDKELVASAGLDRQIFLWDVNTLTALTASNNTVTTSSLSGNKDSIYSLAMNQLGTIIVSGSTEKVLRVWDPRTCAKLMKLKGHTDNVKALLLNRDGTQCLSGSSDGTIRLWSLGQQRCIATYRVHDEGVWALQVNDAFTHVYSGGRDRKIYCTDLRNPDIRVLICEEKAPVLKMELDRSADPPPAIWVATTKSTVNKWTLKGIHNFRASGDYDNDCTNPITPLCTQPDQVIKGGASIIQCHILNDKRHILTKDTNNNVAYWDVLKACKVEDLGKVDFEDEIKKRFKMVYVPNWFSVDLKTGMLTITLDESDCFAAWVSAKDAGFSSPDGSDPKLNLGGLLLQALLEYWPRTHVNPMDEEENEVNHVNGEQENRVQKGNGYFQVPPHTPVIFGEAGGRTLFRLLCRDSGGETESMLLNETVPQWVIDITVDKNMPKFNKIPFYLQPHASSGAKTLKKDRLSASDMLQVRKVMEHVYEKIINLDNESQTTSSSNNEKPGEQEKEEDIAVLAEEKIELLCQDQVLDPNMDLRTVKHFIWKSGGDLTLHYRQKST

The assay has as its target Ubiquitin carboxyl-terminal hydrolase 1/WD repeat-containing protein 48 (Homo sapiens, UniProt O94782). Description: Inhibitory Activity on USP1/UAF1 Enzymology. As for the experimental part:
Ubiquitin rhodamine 110 was used as a substrate to detect the activity of the deubiquitinating enzyme USP1/UAF1 after drug treatment. The total test system was 20 μl, and the test buffer comprises 50 mM Tris-HCl (pH 7.8), 0.5 mM EDTA, 0.01% Bovine Serum Albumin, 1 mM DTT, and 0.01% Tween-20.
With `Fc1c(-c2c(OC(F)F)ncnc2C2CC2)ncc2cnn(CC34CCC(c5nc(C(F)(F)F)cn5CC5CC5)(CC3)CC4)c12` [US20250382289, Compound 10], the IC50 (as a rule, the point on the concentration scale where inhibition reaches its midpoint) is less than 20 nM.

The compound `Fc1c(-c2c(OC(F)F)ncnc2C2CC2)ncc2cnn(Cc3ccc(-c4nc(C(F)(F)F)c5n4CC4(CC4)C5)cc3)c12` [US20250382289, Compound 12] had an IC50 of less than 20 nM.

For `Fc1c(-c2c(OC(F)F)ncnc2C2CC2)ncc2cnn(Cc3ccc(-c4nc(C(F)(F)F)c5n4CC(F)(F)C5)cc3)c12` [US20250382289, Compound 14], the IC50 was less than 20 nM.

For the compound `C#CCn1cc(C(F)(F)F)nc1-c1ccc(Cn2ncc3cnc(-c4c(OC(F)F)ncnc4C4CC4)c(F)c32)cc1` [US20250382289, Compound 18], the IC50 was less than 20 nM.

`CC#CCn1cc(C(F)(F)F)nc1-c1ccc(Cn2ncc3cnc(-c4c(OC(F)F)ncnc4C4CC4)c(F)c32)cc1` [US20250382289, Compound 19] gave an IC50 of less than 20 nM.

Take `CC(C)n1cc(C(F)(F)F)nc1-c1ccc(Cn2ncc3cnc(-c4c(OC(F)F)ncnc4C4CC4)c(F)c32)cc1` [US20250382289, Compound 20]: the IC50 was less than 20 nM.

For the compound `COc1ncnc(C2CC2)c1-c1ncc2cnn(Cc3ccc(-c4nc(C(F)(F)F)c5n4CC4(CC4)C5)cc3)c2c1F` [US20250382289, Compound 21], the IC50 is less than 20 nM.
